These results are taken from article PMC10766610, “DCAF1-based PROTACs with activity against clinically validated targets overcoming intrinsic- and acquired-degrader resistance” (Nature Communications, 2024).

As a reminder, the IC50 is the concentration at which inhibition is half-maximal.

Where two headings read alike, the source gives them in different places.

The target of one test is T1, DCAF1(WDR) (Homo sapiens, UniProt Q9Y4B6, E1398S).
T1 construct: His6 (C); made in house; host or cells: Sf9 insect cells (baculovirus), co-expressed with BirA
T1 sequence (Q9Y4B6 1073-1399 E1398S): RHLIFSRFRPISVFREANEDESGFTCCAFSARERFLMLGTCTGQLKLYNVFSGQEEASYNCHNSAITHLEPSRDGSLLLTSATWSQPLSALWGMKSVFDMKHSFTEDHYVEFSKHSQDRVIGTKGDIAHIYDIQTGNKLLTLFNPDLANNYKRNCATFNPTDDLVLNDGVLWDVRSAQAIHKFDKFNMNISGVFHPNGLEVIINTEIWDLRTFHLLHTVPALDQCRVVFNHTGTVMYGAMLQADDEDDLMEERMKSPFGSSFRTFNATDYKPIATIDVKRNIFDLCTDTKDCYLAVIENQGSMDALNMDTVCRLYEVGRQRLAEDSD
In words: DCAF1 TR-FRET competition assay, standard binary format. Format: binding. As to the method:
(§1) Competition assay conditions consist of 20 µL total volume in white 384-well plates (Greiner), in 30 mM phosphate buffer pH 7.4 containing 140 mM NaCl, 0.01% Tween20, 1 mM TCEP and 1% final DMSO. Tested compounds at 14 different concentrations were pre-incubated at 22 °C for 30 min with a large excess of 10 µM human BTK (G389-S659) or 10 µM human BRD9-BD(130-250) in the cooperative assay or with buffer in standard binary assay. […] Samples were then incubated at 22 °C for 30 min before reading using a Tecan infinite M-1000 or PheraStar FSX (excitation 340 nm, emission 490 and 520 nm). DCAF1 protein was omitted in the negative control. IC50 fitting was carried out using an in-house developed software (Novartis Helios software application, unpublished, a publicly available alternative would be e.g., Graphpad Prism) using the methods described by Fomenko et al.[93] (regression algorithms for nonlinear dose-response curve fitting). Following normalization of activity values for the wells to % inhibition (% inhibition = [(high control-sample)/(high control-low control)] × 100). Data analysis could also be carried out using GraphPad Prism without prior normalization. The reported IC50 values are the average of at least two independent experiments.

For the next test, the target named is T2, BRD9 (Homo sapiens, UniProt Q9H8M2).
T2 sequence (Q9H8M2 1-597): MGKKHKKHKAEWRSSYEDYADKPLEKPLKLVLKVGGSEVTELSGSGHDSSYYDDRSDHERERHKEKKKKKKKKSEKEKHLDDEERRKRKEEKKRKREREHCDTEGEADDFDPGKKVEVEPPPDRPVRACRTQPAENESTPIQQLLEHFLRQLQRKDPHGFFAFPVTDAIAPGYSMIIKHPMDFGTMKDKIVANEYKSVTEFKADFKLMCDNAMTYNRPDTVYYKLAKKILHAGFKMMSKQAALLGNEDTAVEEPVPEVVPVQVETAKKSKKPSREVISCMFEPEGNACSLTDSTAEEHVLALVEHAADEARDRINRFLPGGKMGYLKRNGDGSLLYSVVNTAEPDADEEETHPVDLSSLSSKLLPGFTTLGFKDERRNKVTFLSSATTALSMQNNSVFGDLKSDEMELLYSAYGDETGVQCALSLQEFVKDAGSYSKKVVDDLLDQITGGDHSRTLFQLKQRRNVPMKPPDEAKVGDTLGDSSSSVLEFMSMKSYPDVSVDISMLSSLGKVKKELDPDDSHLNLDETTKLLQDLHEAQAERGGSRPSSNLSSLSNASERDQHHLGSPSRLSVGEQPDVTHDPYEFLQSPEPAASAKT
Kind of test: Immunoblot of BRD9 in HEK293 BRD9-HiBiT/FF/CAS9 cells. The test is classed as cell-based. Also noted: host or cells: HEK293/BRD9-HiBiT knock-in; clone and BRD9-HiBiT/CAS9/FF clone. How it is done: Whole cell lysates for immunoblotting were prepared by pelleting cells at 4 °C (300 g) for 3 min. Cell pellets were then washed 1x with PBS and resuspended in RIPA lysis buffer (VWR, cat # 97063-270) supplemented with protease (Thermo Scientific, cat # A32955) and phosphatase (Thermo Scientific, cat # A32957) inhibitor tablets. Lysates were clarified at 16,000 × g for 15 min at 4 °C prior to quantification by Lowry assay (Bio-Rad cat # 5000113 and cat # 5000114). Whole-cell lysates were loaded into 4–20% Criterion TGX Precast 18 well gels (Bio-Rad, cat # 5671094) and separated by electrophoreses at 120 V for 1 h. The gels were transferred to a nitrocellulose membrane using the Trans-Blot Turbo (Bio-Rad) for 7 min and then blocked for 1 h at room temperature in Odyssey blocking buffer (LICOR Biosciences, cat # 927-50000). Membranes were probed with the appropriate primary antibodies (diluted 1:1000) overnight at 4 °C in 20% Odyssey blocking buffer in 1x TBST. Membranes were washed three times with 1x TBST (5 min per wash), and then incubated with IRDye goat anti-mouse (LICOR, cat # 926-32210) or goat anti-rabbit (LICOR, cat # 926-32211) secondary antibody diluted 1:10,000 in 20% Odyssey blocking buffer for 1 h at room temperature. After three 5-min washes with 1x TBST, the immunoblots were visualized using the ODYSSEY Infrared Imaging System (LICOR). Alternatively, SDS-PAGE resolved proteins were transferred to a PVDF membrane using a wet blotting system (Invitrogen). Membranes were blocked in 5% Milk-PBS-Tween 20 for 1 h and incubated with primary antibody over night at 4 °C. Secondary antibodies (secondary antibody: anti-rabbit, goat pAb to Rb-IgG (Abcam, #7090); secondary antibody: anti-mouse, sheep IgG HRP-linked (GE healthcare, #NA931V)) were incubated for 1 h at room temperature (RT) before blots were developed on film using the detection kit SuperSignal West Femto Maximum Sensitivity Substrate (Thermo Fisher, #34096).
Background: Immunoblotting shows a protein as a band on a membrane.

Test [1] addresses T3, DCAF1(WDR) with additional 10 µM BTK (Homo sapiens, UniProt Q06187+Q9Y4B6, E1398S).
T3 construct: 2 nM human DCAF1(1073-1399)_E1398S-Avi-His; human BTK (G389-S659); His6 (C); His (PreScission site) (N); made in house; host or cells: Sf9 insect cells (both chains)
Kind of test: DCAF1 TR-FRET, cooperative format with 10 µM BTK. The test is classed as binding. The settings on record: cooperative format (+ BTK in Fig. 6b); ± SD (n); read-out: IC50 Alpha DCAF1 TR-FRET. How it is done: as §1
On the technique in general: Time-resolved FRET reads energy transfer from a long-lived donor to a nearby acceptor.

The mark [2] stands for this setting: ± SD (n), read-out: IC50 DCAF1 TR-FRET.

T3 sequence (Q9Y4B6 1073-1399 E1398S): as the sequence (Q9Y4B6 1073-1399 E1398S) above
T3 sequence (Q06187 389-659): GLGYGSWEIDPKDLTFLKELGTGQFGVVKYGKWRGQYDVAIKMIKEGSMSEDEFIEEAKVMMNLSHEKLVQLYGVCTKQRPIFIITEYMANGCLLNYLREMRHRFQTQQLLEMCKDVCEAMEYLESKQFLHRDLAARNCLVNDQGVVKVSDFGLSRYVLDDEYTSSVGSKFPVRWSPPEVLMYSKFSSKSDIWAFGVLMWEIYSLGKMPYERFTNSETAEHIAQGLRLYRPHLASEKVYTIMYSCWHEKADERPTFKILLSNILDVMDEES

Take `COc1cc(-c2cn(C)c(=O)c3cnccc23)c(OC)cc1CN1CCC(OCCCCCC(=O)N2CCN(c3ccc4c(NCCN)nc(C5(c6ccc(Cl)cc6)CCCCC5)nc4c3)CC2)CC1` [DBr-1]: the IC50 on DCAF1(WDR) (binary, compound alone, spread in brackets, read-out: TR-FRET Q. IC50) is 38 nM. Also, the BRD9 protein loss result on BRD9 (1000 nM, 6 h, HEK293 cells) is recorded as “about 90%”. On BRD9 (1000 nM, after 30 min), this molecule returned a BRD9 degradation of 90%. The DC50 at BRD9 (6 h, HEK293 cells, immunoblot, read-out: DC50 BRD9 estimated from dose-response curve) was about 500 nM.

Consider `Cc1c(NC(=O)c2ccc(C(C)(C)O)cc2F)cc(F)cc1-c1ncnc2[nH]c(-c3ccc(CNCCOCCOCCOCCOCCOCCOCCOCCOCCOCCOCCOCCOCCC(=O)N4CCN(c5ccc6c(NCCN)nc(C7(c8ccc(Cl)cc8)CCCCC7)nc6c5)CC4)cc3)cc12` [DBt-5], for which the IC50 on DCAF1(WDR) (setting [2]) is 23 ± 5 nM; in test [1], 282 ± 84 nM.

For `Cc1c(NC(=O)N2CC(O)(CC(C)(C)C)C2)cc(F)cc1-c1ncnc2[nH]c(-c3cnn(CC(=O)N4CCC5(CC4)CN(CCNC(=O)CCCC(=O)N4CCN(c6ccc7c(NCCN)nc(C8(c9ccc(Cl)cc9)CCCCC8)nc7c6)CC4)CCO5)c3)cc12` [DBt-10], the IC50 on DCAF1(WDR) (setting [2]) was 134 ± 68 nM; in test [1], 82 ± 39 nM.

With `CC(=O)N1CCN(c2ccc3c(NCCN)nc(C4(c5ccc(Cl)cc5)CCCCC4)nc3c2)CC1` [compound 13], at BRD9 (1000 nM, 6 h), the “BRD9 protein reduction by individual binders” value is listed as “No BRD9 protein reduction”.
